From patent US20030017462A1, “Control samples for use as standards for evaluating apoptosis in a selected tissue” (priority 2001, published 2003)
Entries after “also recorded” stand apart in the source; their conditions may differ.

Tested on: thymic tissue
Assay: Thymic apoptosis in microgravity culture (RCCS bioreactor), TUNEL assay
Type: cell-based, Lewis rats
Conditions: for Percent Area of Stain: 1 μM dexamethasone in culture media, microgravity bioreactor, 37° C.; for Ratio DEX/CON (Percent Area of Stain): 1 μM dexamethasone vs control media
Procedure: The following media and solutions were prepared:
1. Phosphate buffered saline (PBS) for rinsing tissue.
2. Control media, consisting of RPMi 1640 containing 15% heat-inactivated fetal bovine serum, 100 μg/mL penicillin, 100 μg/mL streptomycin, 100 μg/mL L-glutamine, and 2.5 μg/mL amphotericin B.
3. Experimental media, consisting of control media containing 1 μM dexamethasone.
Two microgravity bioreactors (Synthecon, Inc., Houston Tex.) were utilized; one containing control media and one containing experimental media.
The thymus was removed from two Lewis rats, washed in cold PBS to remove blood, and stripped of excess tissue. Thymus tissue was cut into sections of about 3 mm^3, while in cold media.
The bioreactors were filled with control (CON) or experimental (DEX) media. Approximately 24 thymus pieces were placed in each bioreactor, for incubation at 37° C. at a rotation speed appropriate for the size of tissue piece and sedimentation rate, in order to provide constant free-fall. Tissue pieces were removed from each bioreactor every half hour for the first 3 hours, then every hour to the sixth hour, then at hour 10 and hour 24.
Tissue was fixed in 10% neutral buffered formalin or Histochoice™ (Amresco, Inc., Solon Ohio), processed to paraffin and sectioned for histochemical analysis. Formalin-fixed sections were stained with hematoxylin and eosin. Immunohistochemical staining for Lewis Y expression was performed with Histochoice TM fixed samples on a DAKO autostainer, using a monoclonal mouse anti-human Lewis γ antibody (DAKO, Carpinteria Calif.). A peroxidase labeled streptavidin-biotin detection system (Zymed, So. San Francisco Calif.) and diaminobenzidine (DAB) chromagen were used.
In situ labeling of apoptosis was measured by terminal deoxynucleotidyl transferase mediated dUTP nick end labeling (TUNEL) method with a cell death detection kit (Boehringer Mannheim Gmbh, Mannheim, Germany). Using digital image analysis, immunostained sections were analyzed for intensity stain index (ISI=[ΣP0×I0]/total tissue area in pixels), where P0=number of pixels at each intensity and I0=the intensity units (Doolin et al., J. Surg. Res. 59: 191-197, 1995). TUNEL was quantified as total apoptotic cell number divided by total tissue area.

C[C@@H]1C[C@H]2[C@@H]3CCC4=CC(=O)C=C[C@]4(C)[C@@]3(F)[C@@H](O)C[C@]2(C)[C@@]1(O)C(=O)CO [DEX, dexamethasone] was tested, and the “Percent Area of Stain” value (time 0 hours) was 6.04%, the “Percent Area of Stain” value (time 3 hours) was 21.68% and the “Percent Area of Stain” value (time 6 hours) was 33.29%. For the same compound, the “Percent Area of Stain” value (time 10 hours) was 43.82%, the “Percent Area of Stain” value (time 24 hours) was 43.30% and the “Effect on rate of apoptosis of thymic tissue” value (1 μM dexamethasone in culture medium, RCCS bioreactor, compared with control culture) was “increases the rate of apoptosis; also recorded: increased the rate of apoptosis up to 10 hours post-initiation”. The “Ratio DEX/CON (Percent Area of Stain)” value (time 0 hours) was 1.00, the “Ratio DEX/CON (Percent Area of Stain)” value (time 3 hours) was 1.46 and the “Ratio DEX/CON (Percent Area of Stain)” value (time 6 hours) was 1.58. For the same compound, the “Ratio DEX/CON (Percent Area of Stain)” value (time 10 hours) was 1.37, the “Ratio DEX/CON (Percent Area of Stain)” value (time 24 hours) was 0.87 and the “Time to maximum level of apoptosis, as measured by TUNEL” value (thymic tissue in RCCS bioreactor in the presence of dexamethasone (24 hours without)) was 10 h.
